Results taken from ChEMBL document CHEMBL4177521, “Therapeutic Potential of Fatty Acid Amide Hydrolase, Monoacylglycerol Lipase, and N-Acylethanolamine Acid Amidase Inhibitors” (J Med Chem, 2017).

Key:
[1] = target: T1, Fatty-acid amide hydrolase 1 (Rattus norvegicus, UniProt P97612); test: Inhibition of Sprague-Dawley rat brain FAAH preincubated for 10 mins followed by [3H]-anandamide substrate addition after 30 mins by liquid scintillation counting method
T1 sequence (P97612 whole entry): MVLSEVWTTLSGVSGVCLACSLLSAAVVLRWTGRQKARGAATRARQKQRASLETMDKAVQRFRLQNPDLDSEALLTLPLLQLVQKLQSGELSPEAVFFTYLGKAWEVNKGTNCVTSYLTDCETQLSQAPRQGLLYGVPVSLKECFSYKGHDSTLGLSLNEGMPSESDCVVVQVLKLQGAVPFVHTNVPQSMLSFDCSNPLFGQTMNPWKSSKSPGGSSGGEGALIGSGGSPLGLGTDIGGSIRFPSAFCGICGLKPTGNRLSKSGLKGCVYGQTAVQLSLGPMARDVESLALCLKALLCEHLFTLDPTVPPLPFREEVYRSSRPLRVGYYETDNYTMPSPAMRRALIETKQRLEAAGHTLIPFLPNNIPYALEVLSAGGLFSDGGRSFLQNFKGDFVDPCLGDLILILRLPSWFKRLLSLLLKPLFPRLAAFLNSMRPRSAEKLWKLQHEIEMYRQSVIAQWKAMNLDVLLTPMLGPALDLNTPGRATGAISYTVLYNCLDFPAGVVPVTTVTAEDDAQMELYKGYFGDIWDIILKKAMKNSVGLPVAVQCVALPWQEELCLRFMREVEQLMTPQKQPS

[2] = target: T2, Monoglyceride lipase (Mus musculus, UniProt O35678); test: Inhibition of mouse MAGL
T2 sequence (O35678 whole entry): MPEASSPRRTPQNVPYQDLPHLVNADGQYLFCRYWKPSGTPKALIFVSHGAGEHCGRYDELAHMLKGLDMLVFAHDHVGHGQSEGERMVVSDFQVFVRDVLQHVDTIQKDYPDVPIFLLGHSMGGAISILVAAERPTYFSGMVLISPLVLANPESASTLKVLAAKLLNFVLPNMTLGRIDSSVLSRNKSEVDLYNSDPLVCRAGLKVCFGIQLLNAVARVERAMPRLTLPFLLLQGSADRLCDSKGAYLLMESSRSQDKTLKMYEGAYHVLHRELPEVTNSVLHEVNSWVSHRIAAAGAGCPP

[3] = target: T3, Monoglyceride lipase (Rattus norvegicus, UniProt Q8R431); test: Inhibition of rat MAGL
T3 sequence (Q8R431 whole entry): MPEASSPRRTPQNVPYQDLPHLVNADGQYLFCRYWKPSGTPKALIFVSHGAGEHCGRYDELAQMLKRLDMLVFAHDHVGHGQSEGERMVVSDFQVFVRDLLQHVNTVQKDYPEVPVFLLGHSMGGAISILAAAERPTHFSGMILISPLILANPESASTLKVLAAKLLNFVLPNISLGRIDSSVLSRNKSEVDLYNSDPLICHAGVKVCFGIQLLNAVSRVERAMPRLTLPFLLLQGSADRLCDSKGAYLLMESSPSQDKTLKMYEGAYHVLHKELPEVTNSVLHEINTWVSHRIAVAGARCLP

[4] = target: T2, Monoglyceride lipase; test: Inhibition of mouse MAGL preincubated for 30 mins followed by FP-Rh addition after 30 mins by gel-based ABPP assay
[5] = target: T3, Monoglyceride lipase; test: Inhibition of rat MAGL preincubated for 30 mins followed by FP-Rh addition after 30 mins by gel-based ABPP assay
[6] = target: T4, N-acylethanolamine-hydrolyzing acid amidase (Homo sapiens, UniProt Q02083); test: Time dependent inhibition of recombinant human NAAA expressed in HEK293 cells by liquid scintillation counting method; assay type: cell-based
T4 sequence (Q02083 whole entry): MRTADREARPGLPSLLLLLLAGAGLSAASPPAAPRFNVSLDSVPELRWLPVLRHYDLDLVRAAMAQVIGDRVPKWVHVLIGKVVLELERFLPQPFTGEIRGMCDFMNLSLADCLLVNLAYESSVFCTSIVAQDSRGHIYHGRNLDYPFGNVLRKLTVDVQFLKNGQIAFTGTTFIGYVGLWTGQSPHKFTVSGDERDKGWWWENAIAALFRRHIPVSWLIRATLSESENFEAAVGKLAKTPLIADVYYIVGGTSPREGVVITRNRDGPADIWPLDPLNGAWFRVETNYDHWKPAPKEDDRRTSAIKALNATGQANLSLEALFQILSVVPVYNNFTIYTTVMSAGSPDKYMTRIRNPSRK

[7] = target: T4, N-acylethanolamine-hydrolyzing acid amidase; test: Time dependent inhibition of recombinant human NAAA expressed in HEK293 cell membranes using [14C]-PEA as substrate by liquid scintillation counting method
[8] = species: Homo sapiens; test: Selectivity index, ratio of IC50 for ABHD6 (unknown origin) to IC50 for human MAGL
[9] = species: Homo sapiens; test: Selectivity index, ratio of IC50 for FAAH (unknown origin) to IC50 for human MAGL
[10] = target: T5, Monoglyceride lipase (Homo sapiens, UniProt Q99685); test: Inhibition of recombinant human full length MAGL expressed in HEK293 cells preincubated for 30 mins followed by FP-Rh addition after 30 mins by gel-based ABPP assay; assay type: cell-based
T5 sequence (Q99685 whole entry): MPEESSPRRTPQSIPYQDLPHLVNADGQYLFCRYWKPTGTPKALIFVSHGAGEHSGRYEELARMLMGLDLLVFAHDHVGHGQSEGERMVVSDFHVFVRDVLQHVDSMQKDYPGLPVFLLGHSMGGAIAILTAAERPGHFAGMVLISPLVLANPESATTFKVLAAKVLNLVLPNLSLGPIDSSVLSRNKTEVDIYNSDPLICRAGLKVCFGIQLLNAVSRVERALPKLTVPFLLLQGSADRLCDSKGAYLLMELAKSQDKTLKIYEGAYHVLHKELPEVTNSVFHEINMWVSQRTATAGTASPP

[11] = target: T5, Monoglyceride lipase; test: Inhibition of recombinant human N-terminal His6-tagged and C-terminal Strep-tagged MAGL expressed in Escherichia coli Rosetta using [3H]2-OG as substrate after 10 mins by liquid scintillation counting method
[12] = target: T4, N-acylethanolamine-hydrolyzing acid amidase; test: Inhibition of recombinant human NAAA expressed in HEK293 cells preincubated for 10 mins followed by PAMCA substrate addition after 30 mins by fluorescence assay; assay type: cell-based
[13] = target: T1, Fatty-acid amide hydrolase 1; test: Inhibition of rat FAAH
[14] = target: T1, Fatty-acid amide hydrolase 1; test: Inhibition of rat FAAH assessed as reduction in [14C]oleamide conversion to oleic acid by Lineweaver-Burk plot analysis
[15] = target: T3, Monoglyceride lipase; test: Inhibition of rat cerebellar membranes MAGL-like activity preincubated for 30 mins followed by 2-AG substrate addition after 90 mins by HPLC analysis; design: species or system Cerebellum, Membrane
[16] = target: T3, Monoglyceride lipase; test: Inhibition of recombinant rat N-terminal histidine tagged MAGL expressed in Escherichia coli Rosetta 2 (DE3) pLysS cells preincubated for 10 mins followed by 2-OG substrate addition after 10 mins by LC/MS analysis
[17] = Half life in rat plasma at 3 uM by LC/MS analysis; assay type: ADME, cell-free
[18] = target: T1, Fatty-acid amide hydrolase 1; test: Inhibition of rat brain microsomal FAAH using N-(2-hydroxyethyl)-4-pyren-1-yl-butanamide as substrate after 60 mins by RP HPLC based fluorescence assay
[19] = Half life in pH 7.4 buffer; assay type: physicochemical
[20] = Half life in pH 5.0 buffer; assay type: physicochemical
[21] = Half life in rat plasma; assay type: ADME, cell-free
[22] = Half life in mouse plasma; assay type: ADME, cell-free

Question: For O=C(NC1CCCCC1)OCc1cn(Cc2ccccc2)nn1, which IC50 [1] is on record?
Answer: The IC50 was 26.2 nM.

Question: Which IC50 [2] does the source give for O=C(N1CCN(C(c2ccccc2)c2ccccc2)CC1)n1ccnc1 here?
Answer: Its IC50 is 2600 nM.

Question: And the IC50 [3]?
Answer: The IC50 was 4800 nM.

Question: With O=C(OC(C(F)(F)F)C(F)(F)F)N1CCC(C(O)(c2ccc3c(c2)OCO3)c2ccc3c(c2)OCO3)CC1 as the molecule, how does the IC50 [4] read?
Answer: Its IC50 is 15 nM.

Question: What about the IC50 [5] of the same molecule?
Answer: The IC50 was 43 nM.

Question: Which results are given for CC(=O)Oc1cccc2c1C(=O)c1c(OC(C)=O)cc(C(=O)O)cc1C2=O [DIACEREIN]?
Answer: IC50 [6]: 0.7 to 7.2 µM; IC50 [7]: 0.7 to 7.2 µM

Question: Which results are given for O=C(N1CCC(C(c2ccc3c(c2)OCO3)c2ccc3c(c2)OCO3)CC1)n1cncn1?
Answer: Ratio IC50 [8]: 60; Ratio IC50 [9]: 11200; IC50 [2]: 0.275 nM; IC50 [3]: 0.214 nM

Question: Which IC50 [2] does the source give for O=C(Oc1ccc([N+](=O)[O-])cc1)N1CCN(C(c2ccc(F)cc2)c2ccc(F)cc2)CC1 here?
Answer: Its IC50 is 282 nM.

Question: What about the IC50 [3] of the same molecule?
Answer: Its IC50 is 1800 nM.

Question: With O=C(OC(C(F)(F)F)C(F)(F)F)N1CCN(Cc2cccc(Oc3ccccc3)c2)CC1 as the molecule, how does the IC50 [4] read?
Answer: Its IC50 is 7.6 nM.

Question: What about the IC50 [10] of the same molecule?
Answer: The IC50 was 3.7 nM.

Question: What about the IC50 [5] of the same molecule?
Answer: Its IC50 is 14 nM.

Question: For c1ccc(SSc2ccccc2)cc1, which IC50 [11] is on record?
Answer: Its IC50 is 1600 nM.

Question: With COc1ccc(Cn2cc(CNC(=O)OCc3cn(Cc4cccc(OC)c4)nn3)nn2)cc1 as the molecule, how does the IC50 [1] read?
Answer: The IC50 was 5.8 nM.

Question: Which IC50 ([12]; hek293) does the source give for CCCCCCCCCC(=O)N[C@H]1CNC1=O here?
Answer: The IC50 was 240 nM.

Question: Which IC50 [1] does the source give for O=C(NC1CCCCC1)OCc1cn(-c2ccccc2)nn1 here?
Answer: Its IC50 is 381 nM.

Question: With O=C(N1CCN(C(c2ccc(F)cc2)c2ccc(F)cc2)CC1)n1cncn1 as the molecule, how does the IC50 [2] read?
Answer: The IC50 was 0.219 nM.

Question: What about the IC50 [3] of the same molecule?
Answer: Its IC50 is 1.1 nM.

Question: With COc1nn(-c2cccc(Oc3ccccc3)c2)c(=O)o1 as the molecule, how does the IC50 [13] read?
Answer: The IC50 was 6.1 nM.

Question: With CCCCCCCCCCC(=O)N[C@H]1CNC1=O as the molecule, how does the IC50 ([12]; hek293) read?
Answer: The IC50 was 100 nM.

Question: Which Ki [14] does the source give for O=C(CCCCc1ccccc1)c1nc2ncccc2o1 here?
Answer: Its Ki is 0.3 nM.

Question: For CCN1C(=O)C=CC1=O [N-ETHYLMALEIMIDE], which IC50 [15] is on record?
Answer: The IC50 was 53 µM.

Question: For CCCCCCCC/C=C\CCCCCCCCn1sccc1=O, which IC50 [16] is on record?
Answer: Its IC50 is 43 nM.

Question: For CC(C)(C)[C@@H]1OC(=O)[C@H]1NC(=O)OCCCCCc1ccccc1, which IC50 [12] is on record?
Answer: The IC50 was 234 nM.

Question: What about the half-life at 3 µM [17] of the same molecule?
Answer: Its half-life at 3 µM is greater than 5 min.

Question: Which results are given for O=C(N1CCN(C(c2ccccc2)c2ccccc2)CC1)n1cncn1?
Answer: IC50 [2]: 0.309 nM; IC50 [3]: 0.589 nM

Question: With O=C(NCCCCCCCn1nnc(-c2cccc(Cl)c2)n1)Oc1cccnc1 as the molecule, how does the IC50 [18] read?
Answer: The IC50 was 5.3 nM.

Question: What does the source list for O=C(CCCCCc1ccccc1)N1CCOC1=O?
Answer: half-life [19]: > 1440 min; half-life [20]: > 1440 min; half-life [21]: 200 min

Question: With O=C1C=CC(=O)N1c1ccc2ccc3cccc4ccc1c2c34 as the molecule, how does the IC50 [15] read?
Answer: The IC50 was 9.2 µM.

Question: For O=C(CCc1ccccc1)N[C@H]1COC1=O, which half-life [22] is on record?
Answer: Its half-life is less than 1 min.
